This note sets out measurements from patent US7960433B2, “Treatment of chemokine mediated diseases” (Schering Corporation, priority 2002, dated 2011).

For assay [1], the system named is carrageenan-induced paw edema. The assay can be described thus: Carrageenan-induced rat paw edema model: paw volume. The conditions noted are these: oral, 1 hr before carrageenan, paw volume at 3 h; suboptimal doses: Compound A 1 mg/kg, indomethacin 0.5 mg/kg, betamethasone 0.05 mg/kg, alone or combined. The class given is in vivo, male Sprague-Dawley rats. The protocol:
(§1) Carrageenan (0.05 ml of an 1% solution in saline) was injected into one hindpaw of male Sprague-Dawley rats. […] The increase in paw volume that occurred between the two timepoints was determined for each group. Rats received Compound A: [drawing 179] (see Example 405 of WO 02/083624) or standard drugs in methylcellulose vehicle by the oral route, 1 hr before carrageenan injection. The percentage by which the edematous response was inhibited was calculated by comparing the increase in paw edema of drug-treated rats to that of vehicle-treated controls. To determine neutrophil accumulation in the paws, rats were sacrificed at 3 hrs and myeloperoxidase (MPO) activity was measured from inflammatory fluid expressed from the hindpaw using a colorimetric assay (Bradley et al., 1982). PGE2 production in the hindpaw was assessed by ELISA (R&D Systems, Minneapolis, Minn.).

The test system of assay [2] is PGE2. The assay can be described thus: Carrageenan-induced rat paw edema model: PGE2 production in the hindpaw (ELISA). Type of assay: in vivo, male Sprague-Dawley rats. The conditions noted are these: oral; Compound A 1 mg/kg, betamethasone 0.05 mg/kg, alone or combined. The protocol:
as §1

Assay [3] has as its system myeloperoxidase (MPO) activity. Nature of the assay: Carrageenan-induced rat paw edema model: MPO activity in hindpaw inflammatory fluid (neutrophil accumulation). The conditions noted are these: oral, 3 hrs after carrageenan; Compound A 1 mg/kg, indomethacin 0.5 mg/kg, alone or combined. Type of assay: in vivo, male Sprague-Dawley rats. The protocol: Carrageenan (0.05 ml of an 1% solution in saline) was injected into one hindpaw of male Sprague-Dawley rats. Paw volumes (ml) were measured by a water displacement plethysmometer prior to and 3 h after the injection of carrageenan. The increase in paw volume that occurred between the two timepoints was determined for each group. Rats received Compound A:
[drawing 179] (see Example 405 of WO 02/083624) or standard drugs in methylcellulose vehicle by the oral route, 1 hr before carrageenan injection. The percentage by which the edematous response was inhibited was calculated by comparing the increase in paw edema of drug-treated rats to that of vehicle-treated controls. To determine neutrophil accumulation in the paws, rats were sacrificed at 3 hrs and myeloperoxidase (MPO) activity was measured from inflammatory fluid expressed from the hindpaw using a colorimetric assay (Bradley et al., 1982). PGE2 production in the hindpaw was assessed by ELISA (R&D Systems, Minneapolis, Minn.).

In the next assay the test system is IL-1β. Nature of the assay: SCW mouse knee model: IL-1β production by ex vivo patellar organ culture. The class given is in vivo, female C57BL/6J mice. The protocol: (§2) The method described by Lubberts et al, 1998 was used for these studies, with some modifications. Female 8-12 week old C57BL/6J animals were fasted overnight and dosed orally with Compound A, indomethacin, or a combination of these agents suspended in methylcellulose one hour prior to a single intra-articular injection of 6 μl containing 25 μg of bacterial SCW (4.32 mg/ml rhammose; Lee Laboratories, Grayson, Ga.) in saline into the right knee joint. The left knee joint received an injection of 6 μl of saline at the same time. In other experiments, a neutralizing rat anti-mouse TNFα antibody or matched rat IgG isotype control was administered intraperitoneally two hours prior to SCW injection and Compound A or methylcellulose vehicle was orally administered one hour prior to SCW injection. Knee swelling measurements were performed 2 hours after SCW injection using a dial-gauge caliper ([…], Athol, Mass.) by measuring the difference in swelling between the right and left knee joints. Patellar organ cultures for assessment of synovial cytokine and chemokine and prostaglandin levels were prepared at 2 hours after SCW injection and established as described (Lubberts et al, 1998), using ELISA kits obtained from R&D Systems (Minneapolis, Minn.). Statistical analysis was performed using the Student's t-test, with p<0.05 considered to be indicative of statistical significant differences between groups.

The test system of assay [4] is SCW-induced knee swelling. Nature of the assay: Streptococcal cell wall-induced mouse knee swelling model: knee swelling. Type of assay: in vivo, female C57BL/6J mice. The conditions noted are these: 2 hours after SCW injection. The method, then: as §2
Assay [5] relates to PGE2. Nature of the assay: SCW mouse knee model: PGE2 levels in patellar organ culture. Type of assay: in vivo, female C57BL/6J mice. The protocol:
as §2, with “Statistical analysis was performed using the Student's t-test, with p<0.05 considered to be indicative of statistical significant differences between groups.” left out

Setting [6] is: indomethacin alone (2 mg/kg oral).

With `C[C@H]1C[C@H]2[C@@H]3CCC4=CC(=O)C=C[C@]4(C)[C@@]3(F)[C@@H](O)C[C@]2(C)[C@@]1(O)C(=O)CO` [betamethasone, reference compound], the “inhibition of paw edema” value in assay [1] came out at 32%. In the assay on PGE2 [2], the “inhibition of paw PGE2 levels” value was 31%.

`CC[C@@H](Nc1c(Nc2cccc(C(=O)N(C)C)c2O)c(=O)c1=O)c1ccc(C)o1` [Compound A]: in assay [3], the “inhibition of MPO activity in the hindpaw” value is listed as 67%. Besides, the “inhibition of paw edema” value in assay [1] was 20%. Moreover, in the assay with PGE2 [2], the “inhibition of paw PGE2 levels” value is recorded as 31%. Also, the “inhibition of IL-1β production by ex vivo patellar organ culture” value was found to be 49% in the assay with IL-1β (Compound A 10 mg/kg oral, alone or with indomethacin) and 64% with IL-1β (Compound A 25 mg/kg oral, alone or with indomethacin). Further, the “inhibition of knee swelling” value in assay [4] (Compound A 10 mg/kg oral, alone or with indomethacin 2 mg/kg) worked out at 46%; in assay [4] (Compound A 25 mg/kg oral, alone or with indomethacin 2 mg/kg), 70%. In the assay with PGE2 [5] (Compound A alone at 10-25 mg/kg oral), the “inhibition of PGE2 levels in patellar organ culture” value is on record as 34-40%.

In the case of `COc1ccc2c(c1)c(CC(=O)O)c(C)n2C(=O)c1ccc(Cl)cc1` [indomethacin, reference compound], the “inhibition of MPO activity in the hindpaw” value in assay [3] is given as −58%. Also, the “inhibition of paw edema” value in assay [1] stood at 0%. The “inhibition of IL-1β production by ex vivo patellar organ culture” value with IL-1β (setting [6]) was found to be 11%. The “inhibition of knee swelling” value in assay [4] (indomethacin 2 mg/kg oral alone) is recorded as 42%. Also, the “inhibition of PGE2 levels in patellar organ culture” value in the assay with PGE2 [5] (setting [6]) is recorded as 89%.
